The results in this text go back to patent US6887896B1, “7-[(7-Alkoxy)-chrom-3-en-6-yl]-heptatrienoic acid and 7-[(3-alkoxy)-5,6-dihydronaphthalen-2-yl]-heptatrienoic acid derivatives having serum glucose reducing activity” (Allergan, Inc., priority 2003, dated 2005).

One test has as its target T1, RXRα (Homo sapiens, UniProt P19793).
T1 construct: expressed in transfected cells
T1 sequence (P19793 1-462): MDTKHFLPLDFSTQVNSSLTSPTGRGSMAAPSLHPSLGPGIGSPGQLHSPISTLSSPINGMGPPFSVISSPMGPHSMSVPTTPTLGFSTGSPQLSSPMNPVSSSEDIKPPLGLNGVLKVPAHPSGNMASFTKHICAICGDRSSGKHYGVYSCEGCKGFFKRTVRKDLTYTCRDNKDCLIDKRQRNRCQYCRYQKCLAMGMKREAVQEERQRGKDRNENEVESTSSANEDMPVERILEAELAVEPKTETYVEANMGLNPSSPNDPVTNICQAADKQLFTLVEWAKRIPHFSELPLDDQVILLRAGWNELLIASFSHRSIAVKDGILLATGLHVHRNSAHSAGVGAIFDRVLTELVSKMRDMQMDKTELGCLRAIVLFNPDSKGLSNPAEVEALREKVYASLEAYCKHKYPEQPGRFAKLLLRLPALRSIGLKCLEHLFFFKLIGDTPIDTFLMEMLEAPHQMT
The test is described as follows: ligand binding assay, RXRα. To be noted: for Ki: read-out: RXR Bind Ki α; for Kd: Table 9 (Formula F), read-out: RXR α Kd. Summed up:
(§1)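 Binding of compounds to several retinoid receptor subtypes was measured. Results are given as Ki values in nanomolar concentration, derived per Cheng et al.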

The target in the next test is T2, RXRβ (UniProt P28704).
T2 sequence (P28704 1-520): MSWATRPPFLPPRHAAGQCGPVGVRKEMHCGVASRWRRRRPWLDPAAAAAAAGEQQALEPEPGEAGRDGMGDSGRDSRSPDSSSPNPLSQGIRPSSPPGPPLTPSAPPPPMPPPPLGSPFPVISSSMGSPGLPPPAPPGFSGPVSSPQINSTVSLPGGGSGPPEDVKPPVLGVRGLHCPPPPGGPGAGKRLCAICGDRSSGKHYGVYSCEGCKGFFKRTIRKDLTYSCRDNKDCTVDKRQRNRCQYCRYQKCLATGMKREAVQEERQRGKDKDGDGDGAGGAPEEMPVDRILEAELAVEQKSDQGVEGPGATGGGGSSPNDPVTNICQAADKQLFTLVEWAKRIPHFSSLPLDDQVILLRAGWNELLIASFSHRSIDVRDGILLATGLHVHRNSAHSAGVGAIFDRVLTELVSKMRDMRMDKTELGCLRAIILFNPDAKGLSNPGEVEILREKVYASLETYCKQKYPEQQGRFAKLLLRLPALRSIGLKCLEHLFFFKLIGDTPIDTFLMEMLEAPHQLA
In words: holoreceptor transactivation assay, RXRβ. Type of test: cell-based. Conditions: for EC50: holoreceptor transactivation, read-out: RXR Trans. EC50 β; for RXR Trans. efficacy (number in parentheses) β: percentage compared to the standard compound. In short, it runs like this:
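Cells carrying either full-length RXR (holoreceptor) or chimeric RAR receptors were exposed to compound and reporter transactivation recorded. Potency was expressed as EC50 in nanomolar. Efficacy was expressed as percent of the maximal response of a reference cyclopropyl-tetramethyltetrahydronaphthalene penta-2,4-dienoic acid.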

For the next test, the target named is T3, RARγ (Homo sapiens, UniProt P13631).
T3 sequence (P13631 1-454): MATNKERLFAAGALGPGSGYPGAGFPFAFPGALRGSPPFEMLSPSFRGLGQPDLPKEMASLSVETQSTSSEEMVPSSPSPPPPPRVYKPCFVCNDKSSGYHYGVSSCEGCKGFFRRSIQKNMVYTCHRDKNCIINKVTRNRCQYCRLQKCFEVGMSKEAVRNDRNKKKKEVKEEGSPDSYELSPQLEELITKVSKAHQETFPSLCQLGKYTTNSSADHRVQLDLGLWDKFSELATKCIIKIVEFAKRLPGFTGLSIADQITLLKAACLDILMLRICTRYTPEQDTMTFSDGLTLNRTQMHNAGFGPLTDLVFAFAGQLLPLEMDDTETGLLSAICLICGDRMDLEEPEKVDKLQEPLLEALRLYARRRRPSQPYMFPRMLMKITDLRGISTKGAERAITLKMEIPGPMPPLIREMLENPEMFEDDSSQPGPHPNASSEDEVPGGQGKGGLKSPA
The test is described as follows: ligand binding assay, RARγ. To be noted: for Ki: read-out: RAR Bind. Ki γ; for Kd: Table 9 (Formula F), read-out: RAR γ Kd. In short, it runs like this:
as §1

SMILES strings stand for the structures.

One may read the Ki as the equilibrium dissociation constant of an inhibitor or competing ligand from its target. One may read the EC50 as the concentration that produces a half-maximal response. `CCOc1cc2c(cc1\C(CC)=C(F)/C=C/C(C)=C/C(=O)O)C(C)=CC(C)(C)O2` [Compound 132, 7-(7-Ethoxy-2,2,4-trimethyl-2H-chromen-6-yl)-6-fluoro-3-methyl-nona-2E,4E,6E-trienoic acid]: the results for the Ki at RXRα and at RARγ were 124 nM and 2400 nM, respectively. The EC50 at RXRβ is greater than 10000 nM.
As for `CCOc1cc2c(cc1\C(C)=C(F)/C=C/C(C)=C/C(=O)O)C(C)=CCC2(C)C`, the Ki amounted to 2 nM at RXRα and 1200 nM on RARγ. Further, the EC50 on RXRβ was determined as 12 nM. The “RXR Trans. efficacy (number in parentheses) β” value (“RXR Trans. efficacy” for short) on RXRβ turned out to be 59%.
In the same order, the values of `CC/C(=C(F)/C=C/C(C)=C/C(=O)O)c1cc2c(cc1OC)OC(C)(C)C=C2C(C)(C)C` [Compound 131, 7-(4-tert-Butyl-7-methoxy-2,2-dimethyl-2H-chromen-6-yl)-6-fluoro-3-methyl-nona-2E,4E,6E-trienoic acid] are 10 nM, 3300 nM, 64 nM and 47%.
Broadly, the Kd is a measure of binding affinity in units of concentration. Turning to `CCOc1c(\C(C)=C(F)/C=C/C(C)=C/C(=O)O)cc2c(c1Br)C(C)(C)CC=C2C(C)(C)C` [Compound A-174, (2E,4E,6E)-7-(4-Bromo-8-tert-butyl-3-ethoxy-5,5-dimethyl-5,6-dihydro-naphthalen-2-yl)-6-fluoro-3-methyl-octa-2,4,6-trienoic acid], on RXRα, the Kd worked out at 2 nM. Besides, at RXRβ, the EC50 came out at 7 nM and the “RXR Trans. efficacy” value is 25%. In addition, on RARγ, the Kd is 1600 nM.
The like results for `CCOc1c(\C(C)=C(F)/C=C/C(C)=C/C(=O)O)cc2c(c1Br)C(C)(C)CC=C2C(C)C` [Compound A-169, (2E,4E,6E)-7-(4-Bromo-3-ethoxy-8-isopropyl-5,5-dimethyl-5,6-dihydro-naphthalen-2-yl)-6-fluoro-3-methyl-octa-2.4,6-trienoic acid] were, in that order, 3 nM, 2.2 nM, 68% and 1000 nM.
In the case of `CCOc1c(\C(CC)=C(F)/C=C/C(C)=C/C(=O)O)cc2c(c1Cl)C(C)(C)CC=C2C(C)C` [Compound A-178, (2E,4E,6E)-7-(4-Chloro-3-ethoxy-8-isopropyl-5,5-dimethyl-5,6-dihydronaphthalen-2-yl)-6-fluoro-3-methyl-nona-2,4,6-trienoic acid], the Kd at RXRα came out at 1 nM. Moreover, on RXRβ, the EC50 turned out to be 0.5 nM and the “RXR Trans. efficacy” value is listed as 53%. For the same compound, the Kd at RARγ was 449 nM.
Consider `CCOc1c(\C(C)=C(F)/C=C/C(C)=C/C(=O)O)cc2c(c1Cl)OC(C)(C)C=C2C(C)C` [Compound 172, 7-(8-Chloro-4-isopropyl-7-ethoxy-2,2-dimethyl-2H-chromen-6-yl)-6-fluoro-3-methyl-octa-2E,4E,6E-trienoic acid], for which the Ki was determined as 10 nM at RXRα and 1400 nM at RARγ. In addition, the EC50 on RXRβ worked out at 52 nM. Also, the “RXR Trans. efficacy” value at RXRβ is recorded as 45%.
Consider `COc1cc2c(cc1\C(C)=C(F)/C=C/C(C)=C/C(=O)O)C(C(C)(C)C)=CC(C)(C)O2` [Compound 122, 7-(4-tert-Butyl-7-methoxy-2,2-dimethyl-2H-chromen-6-yl)-6-fluoro-3-methyl-octa-2E,4E,6E-trienoic acid], for which the Ki at RXRα came out at 11 nM. For the same compound, at RXRβ, the EC50 stood at 35 nM and the “RXR Trans. efficacy” value was determined as 61%. In addition, the Ki at RARγ is 3900 nM.
As to `CCOc1c(\C(CC)=C(F)/C=C/C(C)=C/C(=O)O)cc2c(c1Br)C(C)(C)CC=C2C(C)C` [Compound A-170, (2E,4E,6E)-7-(4-Bromo-3-ethoxy-8-isopropyl-5,5-dimethyl-5,6-dihydro-naphthalen-2-yl)-6-fluoro-3-methyl-nona-2,4,6-trienoic acid], the Kd on RXRα stood at 2 nM. Moreover, on RXRβ, the EC50 was 1 nM and the “RXR Trans. efficacy” value is 59%. For the same compound, the Kd at RARγ worked out at 507 nM.
In the same order, the values of `CC(/C=C/C(F)=C(/C)c1cc2c(c(Br)c1OC(C)C)C(C)(C)CC=C2C(C)C)=C\C(=O)O` [Compound A-172, (2E,4E,6E)-7-(4-Bromo-3-isopropoxy-8-isopropyl-5,5-dimethyl-5,6-dihydro-naphthalen-2-yl)-6-fluoro-3-methyl-octa-2,4,6-trienoic acid] are 8 nM, 83 nM, 39% and 834 nM.
Take `CCOc1c(\C(CC)=C(F)/C=C/C(C)=C/C(=O)O)cc2c(c1Cl)OC(C)(C)C=C2C(C)C` [Compound 173]: the Ki at RXRα was 2 nM. For the same compound, at RXRβ, the EC50 worked out at 18 nM and the “RXR Trans. efficacy” value came out at 21%. In addition, the Ki on RARγ stood at 2400 nM.
In the same order, the values of `CCOc1cc2c(cc1\C(C)=C(F)/C=C/C(C)=C/C(=O)O)C(C(C)(C)C)=CCC2(C)C` [Compound A-82, (2E,4E,6E)-6-Fluoro-3-(4,4-dimethyl-6-ethoxy-1-tert-butyl-3,4 dihydronaphthalen-7-yl)-3-methyl-2,4,6-octa-trienoic acid] are 2 nM, 4 nM, 41% and 1400 nM.
For `CCOc1c(\C(C)=C(F)/C=C/C(C)=C/C(=O)O)cc2c(c1Cl)C(C)(C)CC=C2C(C)C` [Compound A-177, (2E,4E,6E)-7-(4-Chloro-3-ethoxy-8-isopropyl-5,5-dimethyl-5,6-dihydronaphthalen-2-yl)6-fluoro-3-methyl-octa-2,4,6-trienoic acid], the Kd on RXRα is 2 nM. Besides, on RXRβ, the EC50 was 0.5 nM and the “RXR Trans. efficacy” value came out at 66%. The Kd at RARγ is 1200 nM.
In the case of `CCC1=CC(C)(C)Oc2cc(OC)c(\C(C)=C/C=C/C(C)=C/C(=O)O)cc21` [Compound 42, 7-(4-Ethyl-7-methoxy-2,2-dimethyl-2H-chromen-6-yl)-3-methyl-octa-2E,4E,6Z-trienoic acid], on RXRα, the Ki was determined as 49 nM. On RXRβ, the EC50 came to 55 nM and the “RXR Trans. efficacy” value is 98%. Also, the Ki at RARγ was greater than 10000 nM.
